# Data reported in patent publication US20130309380A1, “METHODS FOR PRESERVING FRESH PRODUCE” (NatureSeal, Inc., priority 2003, published 2013).
# How the values were obtained:
# Bramley apples [1] = assay: Water released by sliced Bramley apples
# Procedure: (§1) The firmness of the produce in Example 11a were evaluated by bending produce samples. Appearance was evaluated by visual inspection. The moisture was evaluated by measuring the amount of water the produce released.
# (§2) Whole Bramley apples free from blemishes or bruises, were rinsed with water, sanitized with a sodium hypochlorite solution having 100 parts per million available chlorine, for two minutes, then peeled, cored, and sliced. The sliced apples were dipped into a fresh produce preservative solution that contained 5.12% strontium ascorbate; the fresh produce preservative solution contained 4.12% ascorbic acid and 1.79% […], for about 30 to 60 seconds. The apples were then drained in a colander for one minute. The apple slices and the colander were placed in 500 micron plastic bags from SunSet Packaging, stored at 4° C. and evaluated several times over a 15 day period. Water which collected in the plastic bag was removed and weighed.
# For comparison, similarly prepared apple slices were placed in one of several solutions that contained either: 4.3% ascorbic acid and 1.13% hydrated MgCO3, specifically 4MgCO3.Mg(OH)25H2O or a 5.0% w/w aqueous solution of calcium ascorbate dihydrate, having a pH of 7.2; or a 5.3% w/w solution, of 4.12% ascorbic acid and 1.17% calcium carbonate,; or 6% ascorbic acid having a pH of 2.3; or 48 g ascorbic acid, 48 g citric acid, 16 g CaCl2 and 48 g NaCl in 800 g water, with a pH of 1.2; or 6% w/w citric acid and 6% w/w ascorbic acid; or 4.64% sodium ascorbate having 4.13% ascorbic acid and 1.18% NaCo3. […]
# Bramley apples [2] = assay: Evaluation of sliced Bramley apples: appearance by visual inspection, firmness by bending
# Procedure: as §1, §2
# For comparison, similarly prepared apple slices were placed in one of several solutions that contained either: 4.3% ascorbic acid and 1.13% hydrated MgCO3, specifically 4MgCO3.Mg(OH)25H2O or a 5.0% w/w aqueous solution of calcium ascorbate dihydrate, having a pH of 7.2; or a 5.3% w/w solution, of 4.12% ascorbic acid and 1.17% calcium carbonate,; or 6% ascorbic acid having a pH of 2.3; or 48 g ascorbic acid, 48 g citric acid, 16 g CaCl2 and 48 g NaCl in 800 g water, with a pH of 1.2; or 6% w/w citric acid and 6% w/w ascorbic acid; or 4.64% sodium ascorbate having 4.13% ascorbic acid and 1.18% NaCo3.
# Bramley apples were preserved with the fresh produce preservative as in Example 11a except that the preservative solution contained lithium ascorbate. The lithium ascorbate solution was prepared by adding 7.35 grams of lithium carbonate and 35 grams ascorbic acid to 800 grams water.
# For comparison, apple slices were placed in one of several comparative solutions: a 5.0% w/w aqueous solution of calcium ascorbate dihydrate containing 42.5 grams of calcium ascorbate dihydrate and 800 grams water with a pH of 7; a 5.3% w/w solution of calcium ascorbate containing 44.94 grams of mixture of 9.95 grams calcium carbonate and 35 grams ascorbic acid in 800 grams water with a pH of 5.5; a comparative solution, containing 48 g ascorbic acid, 48 g citric acid, 16 g CaCl2, 48 g NaCl and 800 g water with a pH of 1.2; a comparative solution of sodium ascorbate containing 28.45 grams of sodium carbonate 35 grams ascorbic acid, 800 grams water having a pH of 6.8; a comparative solution of calcium ascorbate containing 8.75 grams of calcium carbonate, 35 grams ascorbic acid, and to 800 grams water; a comparative solution of calcium ascorbate containing 9.95 grams of calcium carbonate, 35 grams ascorbic acid, and 765 grams water; a comparative solution of magnesium ascorbate containing 9.66 grams of hydrated magnesium carbonate 4MgCO3.Mg(OH)25H2O, 35 grams ascorbic acid, 765 grams water, having a pH of 6.4; and a comparative solution of zinc ascorbate containing 35 grams ascorbic acid, 12.74 grams zinc carbonate and 765 grams water, with a pH of 5.5. The apple slices were evaluated on day five.
# Bartlett pears = assay: Evaluation of sliced Bartlett pears preserved with fresh produce preservative (scores); parameters: key: 1–10 scale, 10 = freshly cut fruit; below 7 not acceptable; conditions: for Color / Flavor / Moistness / Texture: scale to 10; for color/appearance score: scale to 10 (Table 5)
# Procedure: The texture, flavor, and moistness of the fruit were evaluated by tasting fruit samples. The color and/or appearance was also evaluated by visual inspection. The color, texture, moistness and flavor were then evaluated according to a scale of either 1 to 10, with 10 being the value assigned to a freshly cut piece of comparative fruit or vegetable. A value of less than 7 is not acceptable.
# Whole Red Delicious apples were rinsed with tap water, sanitized with a sodium hypochlorite solution containing 100 ppm chlorine, then cored and sliced. The apple slices were immersed in water for 0.5 to 2 minutes. Then the apple slices were dipped into produce preservative solution containing 4% ascorbic acid and 1.59% K2CO3 having a pH 5.69 for 1 minute. The slices were removed from the solution and drained for 1-2 minutes, sealed in polyethylene bags, and stored at 2-5° C. For controls, sliced apples either not treated or were dipped into either 4% ascorbic acid with 0.66% NaOH to adjust the pH to 4.45. For comparison, sliced apples were dipped into a solution containing 4% ascorbic acid and 1.22% Na2CO3 and having a pH of 5.58.
# Bartlett pears were preserved with the fresh produce preservative as in Example 1a, with preservative solution that contained 4% ascorbic acid and 1.59% K2-CO3. For comparison, pears were treated with a comparative solution that contained 4% ascorbic acid and 1.22% Na2CO3.
# Bartlett pears were preserved with the fresh produce preservative as in Example 1a, except that the preservative solution contained 4% ascorbic acid and 1% Li2CO3.
structure (smiles),measurement,setting,value
"O=C1O[C@H]([C@@H](O)CO)C(O)=C1O [Ascorbic Acid, ascorbic acid]",Water Released,Bramley apples [1]; 4 hr at 4° C.,6.78 g
same,Water Released,Bramley apples [1]; 28 hr at 4° C.,5.34 g
same,Water Released,Bramley apples [1]; 52 hr at 4° C.,4.19 g
same,Water Released,Bramley apples [1]; 94 hr at 4° C.,2.94 g
same,Water Released,Bramley apples [1]; 191 hr at 4° C.,2.63 g
same,Texture,Bramley apples [2]; 28 hr at 4° C.,Firm
same,Texture,Bramley apples [2]; 52 hr at 4° C.,Firm
same,Appearance (visual inspection),Bramley apples [2]; 191 hr at 4° C.,brown
same,Texture,Bramley apples [2]; 191 hr at 4° C.,soft
same,Color,Bartlett pears; 0 hour,10
same,Flavor,Bartlett pears; 0 hour,5
same,Moistness,Bartlett pears; 0 hour,10
same,Texture,Bartlett pears; 0 hour,10
same,Color,Bartlett pears; 1 week,8.6
same,Flavor,Bartlett pears; 1 week,8.8
same,Moistness,Bartlett pears; 1 week,7
same,Texture,Bartlett pears; 1 week,3
same,Color,Bartlett pears; 2 weeks,6.4
same,Flavor,Bartlett pears; 2 weeks,3.4
same,Texture,Bartlett pears; 2 weeks,1
same,Color,Bartlett pears; 1 day,10
same,Flavor,Bartlett pears; 1 day,9
same,Moistness,Bartlett pears; 1 day,10
same,Texture,Bartlett pears; 1 day,9.6
same,color/appearance score,Bartlett pears; 1 day,10
same,color/appearance score,Bartlett pears; 2 days,6
